pIC50: −log10 of the molar value.
System: PTEN-P2/GFP prostate cancer cells
Test: Effect of naphthoquinone analogs on PTEN-P2/GFP cell proliferation (CellTiter96 formazan-based viability assay)
Settings: for pIC50 / viability at 1 µM / viability at 2 µM / viability at 3 µM / viability at 4 µM / viability at 5 µM / viability at 7 µM / viability at 10 µM / viability at 25 µM / viability at 50 µM: Mus musculus, 24 h; for % viability: 24 hrs, listed as 2,6-di-tert-butyl-1,4-naphtoquinone
[1] = 1 μM, medium with 10% FBS and DHT
[2] = 2 μM, medium with 10% FBS and DHT
[3] = 3 μM, medium with 10% FBS and DHT
[4] = 4 μM, medium with 10% FBS and DHT
[5] = 5 μM, medium with 10% FBS and DHT
[6] = 7 μM, medium with 10% FBS and DHT
[7] = 10 μM, medium with 10% FBS and DHT
[8] = 25 μM, medium with 10% FBS and DHT
[9] = 50 μM, medium with 10% FBS and DHT

Description: Cell culture: PTEN-P2/GFP are cells that stably express histone H2B-GFP fusion protein.
Cells are grown in DMEM medium containing 10% FBS, 2 mM L-glutamine, 100 U/ml penicillin/100 μg/ml streptomycin, insulin-selenium-transferrin (5 μg/ml insulin), and DHT 10^−8 M final. Androgen withdrawal is achieved by keeping the cells in phenol red-free DMEM medium containing 10% charcoal-treated FBS and the same supplements as in the normal medium except for DHT. Cells are maintained in a humidified incubator at 37° C. and 5% CO2. G418 (100 μg/ml) is added to maintain stable expression of H2B-GFP.
PTEN-P2/GFP prostate cancer cells were plated at a density of 8000 cells/well in 96-well plates (triplicates) in growing medium containing 10% Fetal Bovine Serum and DHT. The next day, increasing concentrations of a naphthoquinone analog (diluted from 10 mM DMSO stock solutions) were incubated for 24 hrs. Cell viability was determined by the formazan-based cytotoxicity assay “CellTiter96Aquaeous nonradioactive proliferation assay” (Promega).

How did the pIC50 turn out when O=C1C=CC(=O)c2c(O)ccc(O)c21 [Naphthazarin] was run?
The pIC50 was 5.78.

What about the viability at 1 µM of the same compound?
The viability at 1 µM was 73.4%.

What about the viability at 2 µM of the same compound?
Its viability at 2 µM is 36.4%.

What about the viability at 3 µM of the same compound?
The viability at 3 µM was 8.9%.

What about the viability at 4 µM of the same compound?
The viability at 4 µM was 1.5%.

And the viability at 5 µM?
Its viability at 5 µM is 1.7%.

And the viability at 7 µM?
The viability at 7 µM was 2.2%.

And the viability at 10 µM?
The viability at 10 µM was 2.4%.

And the viability at 25 µM?
Its viability at 25 µM is 5.4%.

And the viability at 50 µM?
The viability at 50 µM was 9.1%.

Which results are given for COC1=C(OC)C(=O)c2ccccc2C1=O [DMNQ, 2,3-Dimethoxy-1,4-naphthoquinone]?
pIC50: 5.13; viability at 1 µM [1]: 95%; viability at 2 µM [2]: 91%; viability at 3 µM [3]: 88.5%; viability at 4 µM [4]: 85.9%; viability at 5 µM [5]: 85.3%; viability at 7 µM [6]: 58.3%; viability at 10 µM [7]: 2.4%; viability at 25 µM [8]: 0.9%; viability at 50 µM [9]: 0.8%

What does the source list for O=C1C=CC(=O)c2c(O)cccc21 [Juglone]?
pIC50: 5.28; viability at 1 µM [1]: 90.7%; viability at 2 µM [2]: 85.1%; viability at 3 µM [3]: 80.6%; viability at 4 µM [4]: 80.5%; viability at 5 µM [5]: 58.2%; viability at 7 µM [6]: 2.3%; viability at 10 µM [7]: 1.1%; viability at 25 µM [8]: 2.5%; viability at 50 µM [9]: 5.3%

O=C1C=CC(=O)c2ccccc21 [1,4-naphthoquinone] was tested. Which pIC50 did it give?
Its pIC50 is 4.62.

And the viability at 1 µM [1]?
Its viability at 1 µM is 100%.

What about the viability at 2 µM [2] of the same compound?
Its viability at 2 µM is 97%.

What about the viability at 3 µM [3] of the same compound?
Its viability at 3 µM is 93.9%.

And the viability at 4 µM [4]?
The viability at 4 µM was 90.4%.

What about the viability at 5 µM [5] of the same compound?
Its viability at 5 µM is 90.1%.

What about the viability at 7 µM [6] of the same compound?
Its viability at 7 µM is 88.7%.

And the viability at 10 µM [7]?
Its viability at 10 µM is 83%.

And the viability at 25 µM [8]?
Its viability at 25 µM is 47.3%.

And the viability at 50 µM [9]?
The viability at 50 µM was 0.1%.

Which results are given for CC(C)=CCC1=C(O)C(=O)c2ccccc2C1=O [Lapachol]?
pIC50: < 4.30; viability at 1 µM [1]: 106%; viability at 2 µM [2]: 105%; viability at 3 µM [3]: 102%; viability at 4 µM [4]: 103%; viability at 5 µM [5]: 99.8%; viability at 7 µM [6]: 99.7%; viability at 10 µM [7]: 99.6%; viability at 25 µM [8]: 96.2%; viability at 50 µM [9]: 86.1%

Which results are given for O=C1C=C(O)C(=O)c2ccccc21 [Lawsone]?
pIC50: < 4.30; viability at 1 µM [1]: 90.1%; viability at 2 µM [2]: 85.1%; viability at 3 µM [3]: 81.3%; viability at 4 µM [4]: 82.5%; viability at 5 µM [5]: 80.4%; viability at 7 µM [6]: 80.3%; viability at 10 µM [7]: 83.1%; viability at 25 µM [8]: 87%; viability at 50 µM [9]: 96%

Which results are given for CC1=CC(=O)c2ccccc2C1=O [Menadione, menadione]?
pIC50: 4.84; viability at 1 µM [1]: 95%; viability at 2 µM [2]: 93.1%; viability at 3 µM [3]: 90.2%; viability at 4 µM [4]: 93.5%; viability at 5 µM [5]: 89.4%; viability at 7 µM [6]: 94%; viability at 10 µM [7]: 77.5%; viability at 25 µM [8]: 2.4%; viability at 50 µM [9]: 2.9%

Which results are given for CC(C)(C)C1=CC(=O)c2cc(C(C)(C)C)ccc2C1=O [2,6-di-tert-butyl-1,4-naphthoquinone]?
% viability [2]: 104.5%; % viability [3]: 104.7%; % viability [4]: 103.0%; % viability [5]: 104.0%; % viability [6]: 102.8%; % viability [7]: 102.2%; % viability [8]: 102.9%; % viability [9]: 92.9%; viability at 1 µM [1]: 104%

With O=C1C(SCCO)=C(SCCO)C(=O)c2ccccc21 [NSC 95397, 2,3-Bis[(2-hydroxyethyl)thio]-1,4-naphthoquinone] as the compound, how does the pIC50 read?
The pIC50 was 5.21.

And the viability at 1 µM [1]?
Its viability at 1 µM is 104%.

And the viability at 2 µM [2]?
Its viability at 2 µM is 101%.

What about the viability at 3 µM [3] of the same compound?
The viability at 3 µM was 86.6%.

And the viability at 4 µM [4]?
The viability at 4 µM was 68.4%.

And the viability at 5 µM [5]?
The viability at 5 µM was 53.8%.

And the viability at 7 µM [6]?
The viability at 7 µM was 47.1%.

What about the viability at 10 µM [7] of the same compound?
Its viability at 10 µM is 36.3%.

What about the viability at 25 µM [8] of the same compound?
The viability at 25 µM was 15.1%.

And the viability at 50 µM [9]?
Its viability at 50 µM is 4.8%.

With COC1=CC(=O)c2ccccc2C1=O [2-methoxy-1,4-naphthoquinone] as the compound, how does the pIC50 read?
Its pIC50 is 5.05.

And the viability at 1 µM [1]?
Its viability at 1 µM is 93.1%.

What about the viability at 2 µM [2] of the same compound?
Its viability at 2 µM is 88.4%.

And the viability at 3 µM [3]?
The viability at 3 µM was 86.9%.

And the viability at 4 µM [4]?
Its viability at 4 µM is 85%.

What about the viability at 5 µM [5] of the same compound?
Its viability at 5 µM is 82.5%.

And the viability at 7 µM [6]?
Its viability at 7 µM is 67.2%.

And the viability at 10 µM [7]?
Its viability at 10 µM is 43.5%.

What about the viability at 25 µM [8] of the same compound?
The viability at 25 µM was 0.3%.

With O=C1C(O)=C(C2=C(O)C(=O)c3ccccc3C2=O)C(=O)c2ccccc21 [Lawsone dimer] as the compound, how does the pIC50 read?
The pIC50 was < 4.30.

What about the viability at 1 µM [1] of the same compound?
Its viability at 1 µM is 98.3%.

What about the viability at 2 µM [2] of the same compound?
Its viability at 2 µM is 98.6%.

And the viability at 3 µM [3]?
The viability at 3 µM was 97.4%.

And the viability at 4 µM [4]?
The viability at 4 µM was 95.1%.

What about the viability at 5 µM [5] of the same compound?
Its viability at 5 µM is 96.8%.

What about the viability at 7 µM [6] of the same compound?
Its viability at 7 µM is 96.1%.

And the viability at 10 µM [7]?
Its viability at 10 µM is 98.6%.

And the viability at 25 µM [8]?
Its viability at 25 µM is 99.4%.

And the viability at 50 µM [9]?
Its viability at 50 µM is 97.9%.

How did the pIC50 turn out when O=C1C(Cl)=C(Cl)C(=O)c2ccccc21 [Dichlon] was run?
The pIC50 was 4.42.

And the viability at 1 µM?
Its viability at 1 µM is 96.5%.

What about the viability at 2 µM of the same compound?
Its viability at 2 µM is 95.6%.

And the viability at 3 µM?
The viability at 3 µM was 92.3%.

What about the viability at 4 µM of the same compound?
Its viability at 4 µM is 92.2%.

And the viability at 5 µM?
The viability at 5 µM was 91.8%.

And the viability at 7 µM?
Its viability at 7 µM is 99.3%.

And the viability at 10 µM?
Its viability at 10 µM is 87.1%.

What about the viability at 25 µM of the same compound?
The viability at 25 µM was 89.2%.

What about the viability at 50 µM of the same compound?
The viability at 50 µM was 4.9%.
